Several values for one entry are separate records, joined by “and”; a condition that tells them apart may be missing. Equal values may be shown once.
Assay: xn = mol fraction of the nth substance listed

CC(C)=O + Cc1ccccc1
Conditions	viscosity
293.15 K, 101.32 kPa, x2 = 0.072	0.3349 mPa·s
293.15 K, 101.32 kPa, x2 = 0.148	0.3525 mPa·s
293.15 K, 101.32 kPa, x2 = 0.229	0.374 mPa·s
293.15 K, 101.32 kPa, x2 = 0.317	0.3966 mPa·s
293.15 K, 101.32 kPa, x2 = 0.409	0.42 mPa·s
293.15 K, 101.32 kPa, x2 = 0.509	0.4506 mPa·s
293.15 K, 101.32 kPa, x2 = 0.617	0.4775 mPa·s
293.15 K, 101.32 kPa, x2 = 0.735	0.5095 mPa·s
293.15 K, 101.32 kPa, x2 = 0.862	0.5472 mPa·s
298.15 K, 101 kPa, x1 = 0.0233	0.548 mPa·s
298.15 K, 101 kPa, x1 = 0.0652	0.537 mPa·s
298.15 K, 101 kPa, x1 = 0.1349	0.518 mPa·s
298.15 K, 101 kPa, x1 = 0.2009	0.499 mPa·s
298.15 K, 101 kPa, x1 = 0.301	0.475 mPa·s
298.15 K, 101 kPa, x1 = 0.3387	0.465 mPa·s
298.15 K, 101 kPa, x1 = 0.412	0.445 mPa·s
298.15 K, 101 kPa, x1 = 0.5133	0.419 mPa·s
298.15 K, 101 kPa, x1 = 0.515	0.418 mPa·s
298.15 K, 101 kPa, x1 = 0.6017	0.396 mPa·s
298.15 K, 101 kPa, x1 = 0.6968	0.372 mPa·s
298.15 K, 101 kPa, x1 = 0.7979	0.349 mPa·s
298.15 K, 101 kPa, x1 = 0.8969	0.325 mPa·s
298.15 K, 101 kPa, x2 = 0.0702	0.3418 mPa·s and 0.3418 mPa·s
298.15 K, 101 kPa, x2 = 0.1468	0.3759 mPa·s and 0.3759 mPa·s
298.15 K, 101 kPa, x2 = 0.2269	0.4076 mPa·s and 0.4076 mPa·s
298.15 K, 101 kPa, x2 = 0.3135	0.4383 mPa·s and 0.4383 mPa·s
298.15 K, 101 kPa, x2 = 0.4051	0.4662 mPa·s and 0.4662 mPa·s
298.15 K, 101 kPa, x2 = 0.5072	0.4893 mPa·s and 0.4893 mPa·s
298.15 K, 101 kPa, x2 = 0.616	0.5092 mPa·s and 0.5092 mPa·s
298.15 K, 101 kPa, x2 = 0.7355	0.5293 mPa·s and 0.5293 mPa·s
298.15 K, 101 kPa, x2 = 0.8629	0.5462 mPa·s and 0.5462 mPa·s
298.15 K, 101.32 kPa, x2 = 0.073	0.3172 mPa·s
298.15 K, 101.32 kPa, x2 = 0.148	0.3344 mPa·s
298.15 K, 101.32 kPa, x2 = 0.229	0.353 mPa·s
298.15 K, 101.32 kPa, x2 = 0.317	0.3764 mPa·s
298.15 K, 101.32 kPa, x2 = 0.41	0.3994 mPa·s
298.15 K, 101.32 kPa, x2 = 0.509	0.4236 mPa·s
298.15 K, 101.32 kPa, x2 = 0.618	0.4521 mPa·s
298.15 K, 101.32 kPa, x2 = 0.735	0.4807 mPa·s
298.15 K, 101.32 kPa, x2 = 0.862	0.5138 mPa·s
303.15 K, 101 kPa, x2 = 0.0702	0.3218 mPa·s and 0.3218 mPa·s
303.15 K, 101 kPa, x2 = 0.0929	0.3192 mPa·s
303.15 K, 101 kPa, x2 = 0.1468	0.3527 mPa·s and 0.3527 mPa·s
303.15 K, 101 kPa, x2 = 0.2269	0.381 mPa·s and 0.381 mPa·s
303.15 K, 101 kPa, x2 = 0.3135	0.4098 mPa·s and 0.4098 mPa·s
303.15 K, 101 kPa, x2 = 0.3674	0.4169 mPa·s
303.15 K, 101 kPa, x2 = 0.4051	0.4358 mPa·s and 0.4358 mPa·s
303.15 K, 101 kPa, x2 = 0.5072	0.4553 mPa·s and 0.4553 mPa·s
303.15 K, 101 kPa, x2 = 0.616	0.475 mPa·s and 0.475 mPa·s
303.15 K, 101 kPa, x2 = 0.7355	0.4947 mPa·s and 0.4947 mPa·s
303.15 K, 101 kPa, x2 = 0.8102	0.4984 mPa·s
303.15 K, 101 kPa, x2 = 0.8629	0.5144 mPa·s and 0.5144 mPa·s
308.15 K, 101 kPa, x2 = 0.0702	0.3021 mPa·s and 0.3021 mPa·s
308.15 K, 101 kPa, x2 = 0.1468	0.3267 mPa·s and 0.3267 mPa·s
308.15 K, 101 kPa, x2 = 0.2269	0.3517 mPa·s and 0.3517 mPa·s
308.15 K, 101 kPa, x2 = 0.3135	0.3785 mPa·s and 0.3785 mPa·s
308.15 K, 101 kPa, x2 = 0.4051	0.404 mPa·s and 0.404 mPa·s
308.15 K, 101 kPa, x2 = 0.5072	0.425 mPa·s and 0.425 mPa·s
308.15 K, 101 kPa, x2 = 0.616	0.4443 mPa·s and 0.4443 mPa·s
308.15 K, 101 kPa, x2 = 0.7355	0.4638 mPa·s and 0.4638 mPa·s
308.15 K, 101 kPa, x2 = 0.8629	0.4848 mPa·s and 0.4848 mPa·s
308.15 K, 101.32 kPa, x2 = 0.073	0.2891 mPa·s
308.15 K, 101.32 kPa, x2 = 0.149	0.3036 mPa·s
308.15 K, 101.32 kPa, x2 = 0.23	0.3204 mPa·s
308.15 K, 101.32 kPa, x2 = 0.318	0.3407 mPa·s
308.15 K, 101.32 kPa, x2 = 0.411	0.3615 mPa·s
308.15 K, 101.32 kPa, x2 = 0.51	0.3829 mPa·s
308.15 K, 101.32 kPa, x2 = 0.619	0.4072 mPa·s
308.15 K, 101.32 kPa, x2 = 0.736	0.4335 mPa·s
308.15 K, 101.32 kPa, x2 = 0.862	0.463 mPa·s
313.15 K, 101 kPa, x2 = 0.0929	0.2858 mPa·s
313.15 K, 101 kPa, x2 = 0.3674	0.3952 mPa·s
313.15 K, 101 kPa, x2 = 0.8102	0.4622 mPa·s
318.15 K, 101.32 kPa, x2 = 0.073	0.2628 mPa·s
318.15 K, 101.32 kPa, x2 = 0.149	0.2767 mPa·s
318.15 K, 101.32 kPa, x2 = 0.23	0.2923 mPa·s
318.15 K, 101.32 kPa, x2 = 0.319	0.3081 mPa·s
318.15 K, 101.32 kPa, x2 = 0.412	0.3264 mPa·s
318.15 K, 101.32 kPa, x2 = 0.511	0.347 mPa·s
318.15 K, 101.32 kPa, x2 = 0.61	0.367 mPa·s
318.15 K, 101.32 kPa, x2 = 0.737	0.3916 mPa·s
318.15 K, 101.32 kPa, x2 = 0.863	0.4162 mPa·s
323.15 K, 101 kPa, x2 = 0.0929	0.2564 mPa·s
323.15 K, 101 kPa, x2 = 0.3674	0.3538 mPa·s
323.15 K, 101 kPa, x2 = 0.8102	0.4467 mPa·s

COc1ccccc1 + C1COCCO1
viscosity [mPa·s]
Conditions	293.15 K	298.15 K	303.15 K	308.15 K	313.15 K	323.15 K
101 kPa, x1 = 0.0973	–	1.154	1.063	0.9679	0.9021	–
101 kPa, x1 = 0.1993	–	1.136	1.04	0.9633	0.8956	–
101 kPa, x1 = 0.3019	–	1.105	1.021	0.9435	0.8729	–
101 kPa, x1 = 0.4003	–	1.094	1.011	0.9342	0.8659	–
101 kPa, x1 = 0.4999	–	–	–	0.9209	0.854	–
101 kPa, x1 = 0.5976	–	1.06	0.983	0.9122	0.8465	–
101 kPa, x1 = 0.7024	–	–	0.9723	0.9001	0.8338	–
101 kPa, x1 = 0.7992	–	–	0.9564	0.8957	0.8226	–
101 kPa, x1 = 0.9003	–	1.019	0.9451	0.8765	0.8129	–
101.3 kPa, x1 = 0.1191	1.251	–	1.062	–	0.916	0.799
101.3 kPa, x1 = 0.2422	1.218	–	1.037	–	0.898	0.785
101.3 kPa, x1 = 0.3646	1.223	–	1.014	–	0.879	0.77
101.3 kPa, x1 = 0.4786	1.195	–	1.018	–	0.882	0.76
101.3 kPa, x1 = 0.6021	1.16	–	0.981	–	0.853	0.749
101.3 kPa, x1 = 0.7164	1.125	–	0.965	–	0.84	0.738
101.3 kPa, x1 = 0.8783	1.099	–	0.943	–	0.822	0.724

c1ccc2ccccc2c1 + CO
298.15 K, 101 kPa
Conditions	viscosity
x1 = 0.006	0.5509 mPa·s
x1 = 0.01	0.5564 mPa·s and 0.5619 mPa·s
x1 = 0.03	0.5893 mPa·s

COc1ccccc1 + CCC(C)O
viscosity [mPa·s], 101.33 kPa
Conditions	x1 = 0.0999	x1 = 0.2001	x1 = 0.3001	x1 = 0.3998	x1 = 0.5	x1 = 0.6001	x1 = 0.7	x1 = 0.8002	x1 = 0.9
303.15 K	1.759	1.366	1.172	1.068	1.001	0.969	0.951	0.934	0.918
313.15 K	1.335	1.068	0.932	0.862	0.843	0.831	0.816	0.803	0.792
323.15 K	1.023	0.852	0.769	0.745	0.739	0.731	0.723	0.709	0.698

CC(C)C[P+](C)(CC(C)C)CC(C)C.Cc1ccc(S(=O)(=O)[O-])cc1 + O=S1(=O)CCCC1
Conditions	viscosity [mPa·s]
323.15 K, 101.33 kPa, x1 = 0.5	68.5

c1ccc2ccccc2c1 + Clc1ccccc1
viscosity [mPa·s], 101 kPa
Conditions	308.15 K	313.15 K	318.15 K	323.15 K
x1 = 0.3525	0.962	0.9041	0.8436	0.7981
x1 = 0.4003	1.011	0.945	0.887	0.832

CCCc1ccccc1 + C1CCCCC1
303.15 K, 101 kPa
Conditions	viscosity [mPa·s]
x2 = 0.1018	0.7449
x2 = 0.2046	0.7318
x2 = 0.3024	0.7218
x2 = 0.3975	0.7149
x2 = 0.5018	0.7144
x2 = 0.6007	0.716
x2 = 0.6984	0.7272
x2 = 0.7974	0.749
x2 = 0.9039	0.7828

O=S(=O)([O-])[O-].[Mn+2] + [2H]O[2H]
viscosity [mPa·s], 101 kPa
Conditions	x1 = 0.005	x1 = 0.012	x1 = 0.02	x1 = 0.029	x1 = 0.037
298.15 K	1.297	1.59	2.183	3.14	4.452
308.15 K	1	1.247	1.696	2.404	3.327
318.15 K	0.827	1.008	1.371	1.912	2.575

CC(C)=O + CCCCO
Conditions	viscosity [mPa·s]
298.15 K, 101 kPa, x1 = 0.12	1.65
298.15 K, 101 kPa, x1 = 0.24	1.164
298.15 K, 101 kPa, x1 = 0.35	0.8875
298.15 K, 101 kPa, x1 = 0.46	0.7108
298.15 K, 101 kPa, x1 = 0.56	0.5919
298.15 K, 101 kPa, x1 = 0.66	0.5089
298.15 K, 101 kPa, x1 = 0.75	0.4285
298.15 K, 101 kPa, x1 = 0.84	0.4014
298.15 K, 101 kPa, x1 = 0.92	0.3651
303.15 K, 101.33 kPa, x1 = 0.1152	1.535
303.15 K, 101.33 kPa, x1 = 0.2307	1.127
303.15 K, 101.33 kPa, x1 = 0.3341	0.879
303.15 K, 101.33 kPa, x1 = 0.4685	0.642
303.15 K, 101.33 kPa, x1 = 0.7032	0.427
303.15 K, 101.33 kPa, x1 = 0.7974	0.368

From the CheMixHub viscosity set
